#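 Compound exposure: 48 hours, 5 concentrations, 96-well plates. GI50 = concentration required for 50% inhibition of growth.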 Activity calls are given as the source filed them. Cut-off read from the data, not from the text of the source: active = GI50 up to about 1.1 µM and inactive = higher.
# Tests used:
# Experiment in all cases: NCI tumour cell line growth inhibition, 48 h
# OVCAR-8 = system: OVCAR-8
# DU-145 = system: DU-145
# SK-MEL-28 = system: SK-MEL-28
# NCI-H23 = system: NCI-H23
# RXF 393 = system: RXF 393
# RPMI-8226 = system: RPMI-8226
# UACC-257 = system: UACC-257
# SF-295 = system: SF-295
# UACC-62 = system: UACC-62
# SF-268 = system: SF-268
# M14 = system: M14
# MCF7 = system: MCF7
# CAKI-1 = system: CAKI-1
# SN12C = system: SN12C
# A549 = system: A549
# KM12 = system: KM12
# SK-MEL-5 = system: SK-MEL-5
# SK-OV-3 = system: SK-OV-3
# TK-10 = system: TK-10
# COLO 205 = system: COLO 205
# MDA-MB-231 = system: MDA-MB-231
# SNB-75 = system: SNB-75
# MDA-N = system: MDA-N
# HT-29 = system: HT-29
# HOP-62 = system: HOP-62
# EKVX = system: EKVX
# SW-620 = system: SW-620
# HCT-15 = system: HCT-15
# Malme-3M = system: Malme-3M
# SR = system: SR
# IGROV-1 = system: IGROV-1
# MOLT-4 = system: MOLT-4
# 786-0 = system: 786-0
# HCC 2998 = system: HCC 2998
# K562 = system: K562
# LOX IMVI = system: LOX IMVI
# T47D = system: T47D
# CCRF-CEM = system: CCRF-CEM
# PC-3 = system: PC-3
# NCI-H522 = system: NCI-H522
# HL-60 = system: HL-60
# U-251 = system: U-251
# BT-549 = system: BT-549
# Hs-578T = system: Hs-578T
# OVCAR-3 = system: OVCAR-3
# OVCAR-5 = system: OVCAR-5
# ACHN = system: ACHN
# UO-31 = system: UO-31
# HCT-116 = system: HCT-116
# SK-MEL-2 = system: SK-MEL-2
# MDA-MB-435 = system: MDA-MB-435
# NCI/ADR-RES = system: NCI/ADR-RES
# NCI-H226 = system: NCI-H226
# A498 = system: A498
# OVCAR-4 = system: OVCAR-4
# SNB-19 = system: SNB-19
# SF-539 = system: SF-539
# NCI-H460 = system: NCI-H460
# HOP-92 = system: HOP-92
structure (smiles),measurement,setting,value
Cc1c(CCCl)c(N=P(c2ccccc2)(c2ccccc2)c2ccccc2)n2c(nc3ccccc32)c1C#N,GI50,OVCAR-8,> 10 µM (inactive)
same,GI50,DU-145,> 10 µM (inactive)
same,GI50,SK-MEL-28,> 10 µM (inactive)
same,GI50,NCI-H23,> 10 µM (inactive)
same,GI50,RXF 393,> 10 µM (inactive)
same,GI50,RPMI-8226,> 10 µM (inactive)
same,GI50,UACC-257,> 10 µM (inactive)
same,GI50,SF-295,> 10 µM (inactive)
same,GI50,UACC-62,> 10 µM (inactive)
same,GI50,SF-268,> 10 µM (inactive)
same,GI50,M14,> 10 µM (inactive)
same,GI50,MCF7,> 10 µM (inactive)
same,GI50,CAKI-1,> 10 µM (inactive)
same,GI50,SN12C,> 10 µM (inactive)
same,GI50,A549,> 10 µM (inactive)
same,GI50,KM12,> 10 µM (inactive)
same,GI50,SK-MEL-5,> 10 µM (inactive)
same,GI50,SK-OV-3,> 10 µM (inactive)
same,GI50,TK-10,> 10 µM (inactive)
same,GI50,COLO 205,> 10 µM (inactive)
same,GI50,MDA-MB-231,> 10 µM (inactive)
same,GI50,SNB-75,> 10 µM (inactive)
same,GI50,MDA-N,> 10 µM (inactive)
same,GI50,HT-29,5.79 µM (inactive)
same,GI50,HOP-62,> 10 µM (inactive)
same,GI50,EKVX,> 10 µM (inactive)
same,GI50,SW-620,> 10 µM (inactive)
same,GI50,HCT-15,> 10 µM
same,GI50,Malme-3M,> 10 µM (inactive)
same,GI50,SR,> 10 µM (inactive)
same,GI50,IGROV-1,> 10 µM (inactive)
same,GI50,MOLT-4,> 10 µM (inactive)
same,GI50,786-0,> 10 µM (inactive)
same,GI50,HCC 2998,> 10 µM (inactive)
same,GI50,K562,> 10 µM (inactive)
same,GI50,LOX IMVI,> 10 µM (inactive)
same,GI50,T47D,> 10 µM (inactive)
same,GI50,CCRF-CEM,4.67 µM (inactive)
same,GI50,PC-3,> 10 µM (inactive)
O=C(/C=C/c1c(O)nc2ccccc2c1O)CC(=O)C(=O)Nc1cccc(O)c1,GI50,NCI-H522,> 100 µM (inactive)
same,GI50,OVCAR-8,> 100 µM (inactive)
same,GI50,HL-60,> 100 µM (inactive)
same,GI50,DU-145,> 100 µM (inactive)
same,GI50,U-251,> 100 µM (inactive)
same,GI50,SK-MEL-28,> 100 µM (inactive)
same,GI50,NCI-H23,> 100 µM (inactive)
same,GI50,BT-549,> 100 µM (inactive)
same,GI50,Hs-578T,> 100 µM (inactive)
same,GI50,OVCAR-3,> 100 µM (inactive)
same,GI50,OVCAR-5,> 100 µM (inactive)
same,GI50,ACHN,> 100 µM (inactive)
same,GI50,RPMI-8226,> 100 µM (inactive)
same,GI50,UACC-257,> 100 µM (inactive)
same,GI50,SF-295,> 100 µM (inactive)
same,GI50,UACC-62,> 100 µM (inactive)
same,GI50,SF-268,> 100 µM (inactive)
same,GI50,M14,> 100 µM (inactive)
same,GI50,MCF7,> 100 µM (inactive)
same,GI50,CAKI-1,> 100 µM (inactive)
same,GI50,SN12C,> 100 µM (inactive)
same,GI50,A549,> 100 µM (inactive)
same,GI50,UO-31,> 100 µM (inactive)
same,GI50,KM12,> 100 µM (inactive)
same,GI50,SK-MEL-5,> 100 µM (inactive)
same,GI50,SK-OV-3,> 100 µM (inactive)
same,GI50,HCT-116,> 100 µM (inactive)
same,GI50,SK-MEL-2,> 100 µM (inactive)
same,GI50,MDA-MB-435,> 100 µM (inactive)
same,GI50,TK-10,> 100 µM (inactive)
same,GI50,COLO 205,> 100 µM (inactive)
same,GI50,NCI/ADR-RES,> 100 µM (inactive)
same,GI50,MDA-MB-231,> 100 µM (inactive)
same,GI50,SNB-75,> 100 µM (inactive)
same,GI50,HT-29,> 100 µM (inactive)
same,GI50,EKVX,> 100 µM (inactive)
same,GI50,SW-620,> 100 µM (inactive)
same,GI50,HCT-15,> 100 µM
same,GI50,NCI-H226,> 100 µM (inactive)
same,GI50,Malme-3M,> 100 µM (inactive)
same,GI50,A498,> 100 µM (inactive)
same,GI50,OVCAR-4,> 100 µM (inactive)
same,GI50,SNB-19,> 100 µM (inactive)
same,GI50,IGROV-1,> 100 µM (inactive)
same,GI50,SF-539,> 100 µM (inactive)
same,GI50,MOLT-4,> 100 µM (inactive)
same,GI50,786-0,> 100 µM (inactive)
same,GI50,HCC 2998,> 100 µM (inactive)
same,GI50,K562,> 100 µM (inactive)
same,GI50,NCI-H460,> 100 µM (inactive)
same,GI50,LOX IMVI,> 100 µM (inactive)
same,GI50,T47D,> 100 µM (inactive)
same,GI50,CCRF-CEM,21.1 µM (inactive)
same,GI50,HOP-92,> 100 µM (inactive)
same,GI50,PC-3,> 100 µM (inactive)
CCCC1=NC(C(F)(F)F)(C(F)(F)F)N=C(N2CCOCC2)O1,GI50,OVCAR-8,> 100 µM (inactive)
same,GI50,HL-60,> 100 µM (inactive)
same,GI50,DU-145,> 100 µM (inactive)
same,GI50,U-251,> 100 µM (inactive)
same,GI50,SK-MEL-28,> 100 µM (inactive)
same,GI50,NCI-H23,> 100 µM (inactive)
same,GI50,BT-549,> 100 µM (inactive)
same,GI50,Hs-578T,> 100 µM (inactive)
same,GI50,OVCAR-3,> 100 µM (inactive)
same,GI50,RXF 393,> 100 µM (inactive)
same,GI50,OVCAR-5,> 100 µM (inactive)
same,GI50,RPMI-8226,> 100 µM (inactive)
same,GI50,UACC-257,> 100 µM (inactive)
same,GI50,SF-295,> 100 µM (inactive)
same,GI50,UACC-62,> 100 µM (inactive)
same,GI50,SF-268,> 100 µM (inactive)
same,GI50,M14,> 100 µM (inactive)
same,GI50,MCF7,> 100 µM (inactive)
same,GI50,CAKI-1,63.4 µM (inactive)
same,GI50,SN12C,> 100 µM (inactive)
same,GI50,A549,> 100 µM (inactive)
same,GI50,UO-31,> 100 µM (inactive)
same,GI50,KM12,> 100 µM (inactive)
same,GI50,SK-MEL-5,> 100 µM (inactive)
same,GI50,SK-OV-3,> 100 µM (inactive)
same,GI50,HCT-116,> 100 µM (inactive)
same,GI50,SK-MEL-2,> 100 µM (inactive)
same,GI50,MDA-MB-435,> 100 µM (inactive)
same,GI50,TK-10,> 100 µM (inactive)
same,GI50,COLO 205,> 100 µM (inactive)
same,GI50,NCI/ADR-RES,> 100 µM (inactive)
same,GI50,MDA-MB-231,> 100 µM (inactive)
same,GI50,SNB-75,> 100 µM (inactive)
same,GI50,HT-29,> 100 µM (inactive)
same,GI50,HOP-62,> 100 µM (inactive)
same,GI50,EKVX,> 100 µM (inactive)
same,GI50,SW-620,> 100 µM (inactive)
same,GI50,HCT-15,> 100 µM
same,GI50,NCI-H226,> 100 µM (inactive)
same,GI50,Malme-3M,> 100 µM (inactive)
same,GI50,OVCAR-4,80.2 µM (inactive)
same,GI50,SR,> 100 µM (inactive)
same,GI50,SNB-19,> 100 µM (inactive)
same,GI50,IGROV-1,> 100 µM (inactive)
same,GI50,SF-539,> 100 µM (inactive)
same,GI50,MOLT-4,> 100 µM (inactive)
same,GI50,786-0,> 100 µM (inactive)
same,GI50,HCC 2998,> 100 µM (inactive)
same,GI50,K562,> 100 µM (inactive)
same,GI50,LOX IMVI,> 100 µM (inactive)
same,GI50,T47D,> 100 µM (inactive)
same,GI50,CCRF-CEM,> 100 µM (inactive)
same,GI50,HOP-92,25.3 µM (inactive)
same,GI50,PC-3,> 100 µM (inactive)
CC(C)(C)c1ccc2c(c1)CNCCNCCNCc1cc(C(C)(C)C)ccc1OCC1(CO2)COc2ccc(C(C)(C)C)cc2CNCCNCCNCc2cc(C(C)(C)C)ccc2OC1,GI50,NCI-H522,0.186 µM (active)
same,GI50,OVCAR-8,1.76 µM (inactive)
same,GI50,DU-145,1.49 µM (inactive)
same,GI50,SK-MEL-28,10 µM (inactive)
same,GI50,NCI-H23,1.52 µM (inactive)
same,GI50,BT-549,1.5 µM (inactive)
same,GI50,Hs-578T,1.44 µM (inactive)
same,GI50,OVCAR-3,1.33 µM (inactive)
same,GI50,RXF 393,2.05 µM (inactive)
same,GI50,OVCAR-5,1.72 µM (inactive)
same,GI50,ACHN,1.51 µM (inactive)
same,GI50,UACC-257,1.69 µM (inactive)
same,GI50,UACC-62,1.68 µM (inactive)
same,GI50,SF-268,1.37 µM (inactive)
same,GI50,M14,0.526 µM (active)
same,GI50,MCF7,0.183 µM (active)
same,GI50,CAKI-1,1.72 µM (inactive)
same,GI50,UO-31,1.72 µM (inactive)
same,GI50,KM12,0.243 µM (active)
same,GI50,SK-OV-3,1.53 µM (inactive)
same,GI50,SK-MEL-2,0.914 µM (active)
same,GI50,TK-10,1.55 µM (inactive)
same,GI50,NCI/ADR-RES,2.17 µM (inactive)
same,GI50,MDA-MB-231,1.41 µM (inactive)
same,GI50,HOP-62,1.87 µM (inactive)
same,GI50,EKVX,0.611 µM (active)
same,GI50,SW-620,0.303 µM (active)
same,GI50,HCT-15,1.51 µM
same,GI50,NCI-H226,0.718 µM (active)
same,GI50,Malme-3M,1.94 µM (inactive)
same,GI50,OVCAR-4,1.58 µM (inactive)
same,GI50,IGROV-1,0.418 µM (active)
same,GI50,SF-539,0.375 µM (active)
same,GI50,HCC 2998,0.339 µM (active)
same,GI50,NCI-H460,0.24 µM (active)
same,GI50,PC-3,0.382 µM (active)

# From ChEMBL document CHEMBL1201862, “PubChem BioAssay data set” (2004)
